In the supplement of paper PMC11208160:

Test: recombinant barcode read abundance after kanamycin selection (control-corrected) (log10(CPM+1)); higher = more efficient recombination; sequences stand for … in AGTGCAGAGAAAATCGGCCAGTTTTCTCTGCCTGCAGTCCGCATGCCGT…AGATTTATGCAGCGGACTGCCTTTCTCCCAAAGTGATAAACCGGACAGTATCATGGACCGGTTTTCCCGGTAATCCGTATTTGCAAGGTTGGTTTCACT; site = the 11-nt target
How it was run: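 IS621 bridge RNA target-binding loops were paired with targets in a pooled library tested in E. coli. After co-electroporation with a donor plasmid, cells were plated in two replicates on chloramphenicol/ampicillin LB agar (control) and on chloramphenicol/ampicillin/kanamycin carrying 0.1 mM IPTG. Barcodes at recombinant junctions were counted as counts per million, averaged and control-corrected to give recombination efficiency. Values are log10(CPM+1).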
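Further: IS621 recombinase and bridge RNA in Escherichia coli cells.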

Sequence	recombinant barcode read abundance (log10)
GCCGATTCTTGGGTTCTAACCTGTTGCCT (site GCCGATTCTAG)	0.0394
GTGCCCTCTTGGGTTCTAACCTGTTGCCG (site GTGCCCGCTCC)	0.0127
GGAACGTCTTGGGTTCTAACCTGTTGCTT (site GGAACGTCTAA)	1.06
CCTACTACTTGGGTTCTAACCTGTTGCCG (site CCTACTCCTCT)	0.0358
CATCGCTCTTGGGTTCTAACCTGTTGCTT (site CATCGCTCTAA)	0.0993
ACTAAGTCTTGGGTTCTAACCTGTTGCCT (site AGTAAGTCTAG)	0.0249
AATTGGACTTGGGTTCTAACCTGTTGCTT (site TATTGGACTAA)	0.455
GAGTACACTTGGGTTCTAACCTGTTGCGC (site GAGTACACTGC)	2.53
ATATGATCTTGGGTTCTAACCTGTTGCCT (site ATATGATCTAG)	1.43
GAGTTGCCTTGGGTTCTAACCTGTTGCGT (site GAGTTGCCTAC)	1.68
GCGGTATCTTGGGTTCTAACCTGTTGCCT (site GGGGTATCTAG)	0.105
CAAAGACCTTGGGTTCTAACCTGTTGCGG (site CAAAGACCTCC)	2.06
TTCTAGACTTGGGTTCTAACCTGTTGCGG (site TTCTAGACTCC)	1.94
CTCCGGGCTTGGGTTCTAACCTGTTGCAG (site CTCCGGGCTCT)	1.81
ATTTGGACTTGGGTTCTAACCTGTTGCCT (site ATTTGAACTAG)	0.173
ATGACCTCTTGGGTTCTAACCTGTTGCCT (site ATGCCCTCTAG)	0.0297
AGGTTCCCTTGGGTTCTAACCTGTTGCTT (site AGGTTCCCTGA)	0.621
TTGGGCACTTGGGTTCTAACCTGTTGCCT (site TTGGGCACTAG)	0.0687
GTTTAAACTTGGGTTCTAACCTGTTGCCT (site GTTTAAACTAG)	0.809
TAGTAGTCTTGGGTTCTAACCTGTTGCTT (site TAGTAGTCTAG)	0.659
AATTGCCCTTGGGTTCTAACCTGTTGCCT (site AATTGCCCTAG)	0.369
GGAGGGTCTTGGGTTCTAACCTGTTGCTT (site GGAGGGTCTAA)	1.72

Sequence	recombinant barcode read abundance (log10)
CTCCCAACTTGGGTTCTAACCTGTTGCCG (site CTCCCAACTCG)	0.136
TGTAGTCCTTGGGTTCTAACCTGTTGCAT (site TGTAGTCCTAC)	0.0299
CTCGGTACTTGGGTTCTAACCTGTTGCCA (site CTCGGTTCTAG)	0.0612
CCGTCATCTTGGGTTCTAACCTGTTGCCT (site CCGTCGTCTAG)	0.234
AAGGCTTCTTGGGTTCTAACCTGTTGCCT (site AAGGCTTCTAG)	1.4
GTACTGCCTTGGGTTCTAACCTGTTGCCT (site GTACTGCCTAG)	1.28
GTTTCTTCTTGGGTTCTAACCTGTTGCCT (site GATTCTTCTAG)	0.304
CATTATTCTTGGGTTCTAACCTGTTGCCT (site CATTATTCTAG)	0.0377
TAGTACTCTTGGGTTCTAACCTGTTGCTG (site TAGTACTCTAA)	0.244
GATAGGCCTTGGGTTCTAACCTGTTGCTT (site GATAGGCCTAA)	0.371
TATAATTCTTGGGTTCTAACCTGTTGCTT (site TTCAATTCTAA)	0.146
TCTTGGACTTGGGTTCTAACCTGTTGCTG (site TCTTGGACTCA)	0.0828
GAAAACTCTTGGGTTCTAACCTGTTGCCT (site GAAAACTCTAG)	1.11
AGTCAAACTTGGGTTCTAACCTGTTGCCT (site AGTCATACTAG)	0.141
TGACTAGCTTGGGTTCTAACCTGTTGCCT (site TGACTAGCTAG)	0.176
CGCTTGTCTTGGGTTCTAACCTGTTGCCG (site CGCTTGTCTCG)	0.134
CCTAAGCCTTGGGTTCTAACCTGTTGCGT (site CCTAAGCCTAC)	1.21
GAATTAGCTTGGGTTCTAACCTGTTGCGG (site GAATTAGCTCC)	1.71
AAGCAGTCTTGGGTTCTAACCTGTTGCCT (site AAGCAATCTAG)	0.44
TTGAAATCTTGGGTTCTAACCTGTTGCCT (site TTGAGATCTAG)	0.0296
TCCATAACTTGGGTTCTAACCTGTTGCCT (site GGGGCGTCTCA)	0.0285
AGGACAACTTGGGTTCTAACCTGTTGCCT (site AGCACAACTAG)	0.155

Sequence	recombinant barcode read abundance (log10)
GTGTGTTCTTGGGTTCTAACCTGTTGCCT (site GTGTGTACTAG)	1.15
GAGGGAGCTTGGGTTCTAACCTGTTGCAT (site GAGCGAGCTAT)	0.171
GAAACGGCTTGGGTTCTAACCTGTTGCCT (site GAAAAGGCTAG)	0.0884
GGCTAGCCTTGGGTTCTAACCTGTTGCCT (site GGCTAGCCTAG)	0.423
CACCGAGCTTGGGTTCTAACCTGTTGCCG (site CATCGAGCTCG)	0.145
TGTTGAGCTTGGGTTCTAACCTGTTGCAG (site TGTAGAGCTCT)	0.148
GTATGAGCTTGGGTTCTAACCTGTTGCCT (site GTATGAACTAG)	0.475
TCGGACACTTGGGTTCTAACCTGTTGCCA (site TGGGACTCTTG)	0.0505
TCCCATTCTTGGGTTCTAACCTGTTGCCT (site TCCCATACTAG)	0.197
TTAGACCCTTGGGTTCTAACCTGTTGCCT (site ATAGACCCTAG)	1.3
GACTCTCCTTGGGTTCTAACCTGTTGCCT (site GACTCTCCTAA)	0.21
TAGGTATCTTGGGTTCTAACCTGTTGCAG (site CCTTGTGCTAC)	0.156
CCGCACACTTGGGTTCTAACCTGTTGCCT (site CCGCACACTAG)	1.8
GTTAGCCCTTGGGTTCTAACCTGTTGCAT (site GTTAGCCCTAT)	0.928
AGCTTAGCTTGGGTTCTAACCTGTTGCCT (site AGCTTAGCTGG)	0.206
AAACGACCTTGGGTTCTAACCTGTTGCCT (site CAACGACCTAG)	0.291
TTCCCCACTTGGGTTCTAACCTGTTGCCT (site AATATAGCTTA)	0.115
TAGTAGTCTTGGGTTCTAACCTGTTGCAT (site TAGTAGTCTAT)	2.12
ACGTTTCCTTGGGTTCTAACCTGTTGCAT (site ACGTTTCCTAT)	0.0487
AAATCGTCTTGGGTTCTAACCTGTTGCCT (site AACACGTCTAG)	0.176
GATTCTACTTGGGTTCTAACCTGTTGCTT (site GAGTCTACTAA)	0.813
TCTAATCCTTGGGTTCTAACCTGTTGCAT (site TCTAAACCTAT)	0.11

Sequence	recombinant barcode read abundance (log10)
TTGCATCCTTGGGTTCTAACCTGTTGCAG (site CGTTGGTCTTC)	0.0529
TGGCAATCTTGGGTTCTAACCTGTTGCCT (site ACCTCGGCTCA)	0.556
TGCTCTACTTGGGTTCTAACCTGTTGCTG (site TGTTCTACTCG)	0.114
AATGCTACTTGGGTTCTAACCTGTTGCAT (site AATGCTACTAT)	0.235
AGGCGTACTTGGGTTCTAACCTGTTGCCT (site AGGCGTACTAG)	0.465
GCGCGTGCTTGGGTTCTAACCTGTTGCCT (site GCGCGTGCTAG)	0.584
GCGTGTACTTGGGTTCTAACCTGTTGCCT (site GCGTGTACTAG)	0.948
GTCTAATCTTGGGTTCTAACCTGTTGCAT (site ACAGGTCCTCG)	0.0725
AGTGTCGCTTGGGTTCTAACCTGTTGCGG (site AGTCTCGCTCC)	0.0162
AGCTCCGCTTGGGTTCTAACCTGTTGCCT (site TGCTCGGCTAG)	0.2
GTCCCTCCTTGGGTTCTAACCTGTTGCGT (site GTCCCTCCTAC)	2.74
TGAACTACTTGGGTTCTAACCTGTTGCCT (site TGAACTACTAG)	0.192
GTACAGCCTTGGGTTCTAACCTGTTGCCT (site GTACCGCCTAG)	0.0712
GGTATGTCTTGGGTTCTAACCTGTTGCTT (site GCTATGTCTAG)	0.0865
GTATGAGCTTGGGTTCTAACCTGTTGCCT (site GTATGATCTAG)	0.135
CACTAGACTTGGGTTCTAACCTGTTGCCG (site CACTAGACTCG)	1.37
ACAAGGGCTTGGGTTCTAACCTGTTGCTG (site GAGGCTACTAT)	0.531
TGGTGCCCTTGGGTTCTAACCTGTTGCGT (site TGGTGCCCTAC)	1.83
TGACGCTCTTGGGTTCTAACCTGTTGCCT (site TGCCGCTCTAG)	0.149
TAGGAGCCTTGGGTTCTAACCTGTTGCGT (site TAGGAGCCTAC)	3.27
